The text below walks through data of patent US4233445A, “7-(Substituted)-7H-pyrrolo[3.2-F]-quinazoline-1,3-diamines” (American Home Products Corporation, priority 1979, dated 1980).

Values after ≈ are worked out from the molar mass of the structure shown.

The test system of one test is Escherichia coli (E-3). Briefly: In vivo antibacterial synergism (mouse), Escherichia coli (E-3). The arrangement: species or system Mice (male, CD-1 strain). The following applies: p.o., at time of infection, Cpd. dose in combination with SM, 20160 min. Here is the method:
(§1) The test agent is weighed, suspended in 0.5% aqueous carboxymethyl cellulose, hemogenized (glass tissue grinder) and diluted according to the design of the experiment. Mice (male, 18±1 g., CD-1 strain) are pre-weighed, pooled, infected at random intraperitoneally with a 0.5 ml. standardized suspension (LD95 ±5%) of the bacterial organism in 5% gastric mucin and treated at random with single doses of the test agents either at the time of infection or six hours after infecting. The treated groups consist of ten mice per dosage level. Deaths are recorded daily for 14 days and the PD50 (mice are treated at time of infection) and CD50 (mice are treated six hours after infecting) values are calculated by the method of Reed and Muench [Amer. J. Hyg., 27, (1938)].

Test [1] has as its system Staphylococcus aureus CHP. Briefly: In vivo antibacterial synergism (mouse), Staphylococcus aureus CHP. More on the design: species or system Mice (male, CD-1 strain). Particulars: p.o., at time of infection, Cpd. dose in combination with SM, 20160 min. Here is the method: as §1
The next test relates to Escherichia coli (E-2). Briefly: In vivo antibacterial synergism (mouse), Escherichia coli (E-2). More on the design: species or system Mice (male, CD-1 strain). The following applies: p.o., at time of infection, Cpd. dose in combination with SM, 20160 min. The method, then:
as §1

In a further test the test system is P. vulgaris 6896. The test is described as follows: In vitro antibacterial activity (MIC), P. vulgaris 6896. It counts as cell-based. The following applies: agar dilution, 18 hours at 35° C. The method, then: (§2) The compounds have shown activity in vitro against one or more of the following strains of bacteria: S. aureus Smith, S. aureus 53-180, N. catarrhalis 8193, E. coli 9637, S. paratyphi 11737, K. pneumoniae 10031, or P. vulgaris 6896.
(§3) A stock solution or suspension of the test compound at a concentration of 2500 μg/ml. is prepared utilizing a suitable solvent or medium such as aqueous sodium hydroxide, aqueous lactic acid, methyl cellosolve, dimethylsulfoxide, dimethylacetamide, ethylene glycol, dimethylformamide, formamide, propylene glycol, acetone or methanol. Two-fold dilutions are made by adding appropriate amounts of sterile water to the solution or suspension of the test substance. One ml. quantities of each dilution are incorporated into Wellcotest Sensitivity Test Agar fortified with 5% hemolyzed horse blood (9 ml. vol.) in sterile Petri dishes to give plates containing varying concentrations of the test compound. The hardened surfaces of each plate are incubated with the test organism, and the plates are incubated for 18 hours at 35° C.
On the technique in general: In agar dilution the substance is mixed into plates at graded concentrations.

For another test, the system named is S. aureus Smith. Briefly: In vitro antibacterial activity (MIC), S. aureus Smith. It counts as cell-based. Particulars: agar dilution, 18 hours at 35° C. The method, then:
as §2, §3

The next test relates to N. catarrhalis 8193. The test is described as follows: In vitro antibacterial activity (MIC), N. catarrhalis 8193. It counts as cell-based. The following applies: agar dilution, 18 hours at 35° C. Here is the method: as §2, §3
Another test concerns S. aureus 53-180. Briefly: In vitro antibacterial activity (MIC), S. aureus 53-180. The class given is cell-based. The following applies: agar dilution, 18 hours at 35° C. The method, then: as §2, §3
The next test relates to K. pneumoniae 10031. The test is described as follows: In vitro antibacterial activity (MIC), K. pneumoniae 10031. It counts as cell-based. Particulars: agar dilution, 18 hours at 35° C. Here is the method: as §2, §3
Another test relates to S. paratyphi 11737. The test is described as follows: In vitro antibacterial activity (MIC), S. paratyphi 11737. The class given is cell-based. Particulars: agar dilution, 18 hours at 35° C. The method, then: as §2, §3
The next test relates to E. coli 9637. The test is described as follows: In vitro antibacterial activity (MIC), E. coli 9637. It counts as cell-based. Particulars: agar dilution, 18 hours at 35° C. The method, then:
as §2, §3

In the case of `Nc1nc(N)c2c(ccc3c2ccn3-c2ccncc2)n1` [Example 10, 7-(4-Pyridinyl)-7H-pyrrolo-[3,2-f]quinazoline-1,3-diamine], the results for the “PD50, SM/Cpd. (Cpd. component)” value (in the test on Escherichia coli (E-3); in test [1]; with Escherichia coli (E-2)) were 6.25 mg. per kg, 7.28 mg. per kg and 1.20 mg. per kg, respectively.
As to `CC(C)c1cccc(Cn2ccc3c4c(N)nc(N)nc4ccc32)c1` [Example 5], the “MIC (minimal inhibitory concentration)” value came out at 62.5 µg/mL (≈ 189 µM) in the test with P. vulgaris 6896; 1.95 µg/mL (≈ 5.88 µM) with S. aureus Smith; 3.9 µg/mL (≈ 11.8 µM) against N. catarrhalis 8193; 0.488 µg/mL (≈ 1.47 µM) in the test on S. aureus 53-180; 0.244 µg/mL (≈ 0.736 µM) in the test on K. pneumoniae 10031; 31.3 µg/mL (≈ 94.4 µM) in the test on S. paratyphi 11737. The “MIC (minimal inhibitory concentration)” value against E. coli 9637 was determined as 7.81 µg/mL (≈ 23.6 µM).
Consider `COC(=O)c1ccc(Cn2ccc3c4c(N)nc(N)nc4ccc32)cc1` [Example 8], for which the MIC with S. aureus Smith (Staphylococcus aureus, read-out: MIC (minimal inhibitory concentration)) is 31.5 µg/mL (≈ 90.7 µM).
